Values of other authors in US10166212B2, “Oral use of zinc and copper gluconates in the treatment of digital dermatitis” (DANTRACE, priority 2015, dated 2019).

What was measured:
[1] = tested on: digital dermatitis lesions
[2] = administered as pills of zinc oxide; remainder excreted in feces

SMILES | healing rate, treatment vs. control group ([1]; by day 34, P=0.01) | overall positive effect (healing and improvement), treatment vs. control ([1]; by day 34, P=0.05) | healing rate (change to M0) ([1]; by day 34 post-treatment, 10 g salicylic acid powder in bandage vs chlortetracycline spray control) | proportion of lesions getting smaller, treatment vs. control ([1]; by days 14 and 34, P<0.08) | healing rates between treatment groups ([1]; days 3 and 14) | zinc taken up by the digestive system [2]
O=C(O)c1ccccc1O [salicylic acid] | fivefold better | 1.75 fold | 13.6% | 2.5 times | did not differ significantly | –
[O]=[Zn] [zinc oxide] | – | – | – | – | – | 20%
